What was measured:
[1] = target: T1, recombinant EphB4 (Homo sapiens, UniProt P54760); test: In vitro EphB4 enzyme assay (Alphascreen); format: biochemical
T1 construct: amino acids 563-987; Swiss-Prot Acc; No. P54760; purchased ProQinase GmbH 0178-0000-3
T1 sequence (P54760 563-987): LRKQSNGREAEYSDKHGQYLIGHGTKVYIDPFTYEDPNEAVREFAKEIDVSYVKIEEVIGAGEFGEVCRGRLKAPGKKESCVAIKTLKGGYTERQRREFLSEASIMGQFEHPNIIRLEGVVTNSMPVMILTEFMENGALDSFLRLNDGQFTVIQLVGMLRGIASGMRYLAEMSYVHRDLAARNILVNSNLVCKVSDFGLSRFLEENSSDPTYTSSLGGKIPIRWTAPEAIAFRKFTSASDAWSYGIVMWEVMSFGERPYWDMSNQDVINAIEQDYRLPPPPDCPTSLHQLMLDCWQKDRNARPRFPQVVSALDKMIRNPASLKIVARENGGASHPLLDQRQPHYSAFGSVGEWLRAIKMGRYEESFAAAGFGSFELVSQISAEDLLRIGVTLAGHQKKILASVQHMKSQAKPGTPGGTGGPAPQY
Procedure, shortened: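 Recombinant EphB4 phosphorylated biotin-poly-GAT with Mg-ATP for 1 hr at room temperature; EDTA stop, then Alphascreen donor/acceptor (anti-phosphotyrosine) beads for 20 hrs in the dark. After minimum subtraction, signal plotted against compound concentration to derive IC50.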

[2] = target: T2, human EphB4 (Homo sapiens, UniProt P54760); test: In vitro EphB4 cell assay (EphB4 phosphorylation in EphB4-CHO cells, sandwich ELISA); format: cell-based; details: Assay B
T2 construct: to generate full-length EphB4 containing a Myc-His tag at the C-terminus; expressed in transfected cells; EphB4-CHO)
T2 sequence (P54760 16-987): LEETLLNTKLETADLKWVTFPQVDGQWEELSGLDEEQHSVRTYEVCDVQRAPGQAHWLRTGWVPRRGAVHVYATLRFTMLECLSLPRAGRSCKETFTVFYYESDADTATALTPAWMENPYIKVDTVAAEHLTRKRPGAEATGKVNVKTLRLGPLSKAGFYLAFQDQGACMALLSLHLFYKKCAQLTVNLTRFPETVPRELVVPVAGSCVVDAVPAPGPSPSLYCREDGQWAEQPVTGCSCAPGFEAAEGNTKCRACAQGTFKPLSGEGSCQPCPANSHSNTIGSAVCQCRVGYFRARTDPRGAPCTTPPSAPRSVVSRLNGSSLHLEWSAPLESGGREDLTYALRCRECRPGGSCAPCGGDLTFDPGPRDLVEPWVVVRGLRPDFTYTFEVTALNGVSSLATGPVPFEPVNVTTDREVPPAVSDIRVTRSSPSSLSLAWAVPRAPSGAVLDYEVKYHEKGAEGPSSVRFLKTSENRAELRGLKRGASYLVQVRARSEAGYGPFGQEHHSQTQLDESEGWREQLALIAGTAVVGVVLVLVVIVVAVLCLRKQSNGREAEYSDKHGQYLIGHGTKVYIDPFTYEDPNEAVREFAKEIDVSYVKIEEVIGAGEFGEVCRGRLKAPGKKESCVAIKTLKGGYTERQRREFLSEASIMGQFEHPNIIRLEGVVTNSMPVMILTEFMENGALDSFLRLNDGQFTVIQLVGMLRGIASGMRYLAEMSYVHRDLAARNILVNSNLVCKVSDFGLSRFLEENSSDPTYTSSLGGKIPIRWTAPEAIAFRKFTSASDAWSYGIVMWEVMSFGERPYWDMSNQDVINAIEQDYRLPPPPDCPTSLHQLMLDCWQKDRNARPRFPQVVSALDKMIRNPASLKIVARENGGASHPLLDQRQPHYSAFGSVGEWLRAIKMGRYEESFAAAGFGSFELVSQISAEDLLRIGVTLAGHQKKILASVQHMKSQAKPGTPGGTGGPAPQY
Description: The assay identifies inhibitors of cellular EphB4 by measuring a decrease in phosphorylation of EphB4 following treatment of cells with compound. The endpoint assay used a sandwich ELISA to detect EphB4 phosphorylation status. Briefly, Myc-tagged EphB4 from treated cell lysate was captured on the ELISA plate via an anti-c-Myc antibody. The phosphorylation status of captured EphB4 was then measured using a generic phosphotyrosine antibody conjugated to HRP via a colourimetric output catalysed by HRP, with level of EphB4 phosphorylation directly proportional to the colour intensity. Absorbance was measured spectrophotometrically at 450 nm.
Full length human EphB4 (Swiss-Prot Acc. No. P54760) was cloned using standard techniques from cDNA prepared from HUVEC using RT-PCR. The cDNA fragment was then sub-cloned into a pcDNA3.1 expression vector containing a Myc-His epitope tag to generate full-length EphB4 containing a Myc-His tag at the C-terminus (Invitrogen Ltd. Paisley, UK). […] CHO-K1 cells were engineered to stably express the EphB4-Myc-His construct using standard stable transfection techniques, to generate cells hereafter termed EphB4-CHO.
On day 2, the cells were incubated overnight in 90 μl/well of media containing 0.1% Hyclone stripped-serum (Fisher Scientific UK, Catalogue No. SH30068.02). […] A 10 μl aliquot of each compound dilution was transferred to the cell plates in duplicate wells, and the cells incubated for 1 hr at 37° C.
Following compound treatment, cells were stimulated with clustered ephrin-B2 at a final concentration of 1 μg/ml for 20 minutes at 37° C. to induce EphB4 phosphorylation. Following stimulation, the medium was removed and the cells lysed in 100 μl/well of lysis buffer (25 mM Tris HCl, 3 mM EDTA, 3 mM EGTA, 50 mM NaF, 2 mM orthovanadate, 0.27M Sucrose, 10 mM β-glycerophosphate, 5 mM sodium pyrophosphate, 2% Triton X-100, pH 7.4).
Plates were washed twice with PBS/0.05% Tween-20 and incubated with 100 μl/well cell lysate overnight at 4° C. […] ELISA plates were washed four times with PBS/0.05% Tween-20 and developed with 100 μl/well TMB substrate (Sigma-Aldrich Company Ltd, Catalogue No. T0440). The reaction was stopped after 15 minutes with the addition of 25 μl/well 2M sulphuric acid. The absorbances were determined at 450 nm using the Tecan SpectraFluor Plus. The minimum value was subtracted from all values, and the signal plotted against compound concentration to generate IC50 data.

In the case of `CN(c1ccnc(Nc2cc(F)cc(N3CCOCC3)c2)n1)c1ccc(F)c(Cl)c1F` [Example 2.2, N′-(3-chloro-2,4-difluoro-phenyl)-N-(3-fluoro-5-morpholin-4-yl-phenyl)-N′-methyl-pyrimidine-2,4-diamine], the IC50 [1] is reported as 2180 nM and the IC50 [2] is reported as 74 nM.
In the case of `CN(c1ccnc(Nc2cc(CN3CCCC3)cc(N3CCOCC3)c2)n1)c1ccc(F)c(Cl)c1F` [Example 2.17, N′-(3-chloro-2,4-difluoro-phenyl)-N′-methyl-N-[3-morpholin-4-yl-5-(pyrrolidin-1-ylmethyl)phenyl]py-rimidine-2,4-diamine], the IC50 [1] is reported as 28.9 nM and the IC50 [2] is reported as 21 nM.
In the case of `CN(c1ccnc(Nc2cc(N3CCCOCC3)cc(N3CCOCC3)c2)n1)c1ccc(F)c(Cl)c1F` [Example 2.10, N′-(3-chloro-2,4-difluoro-phenyl)-N′-methyl-N-[3-morpholin-4-yl-5-(1,4-oxazepan-4-yl)phenyl]pyrimidine-2,4-diamine], the IC50 [1] is reported as 1270 nM and the IC50 [2] is reported as 11 nM.
With `CC(C)OCc1cc(Nc2nccc(N(C)c3ccc(F)c(Cl)c3F)n2)cc(N2CCOCC2)c1` [Example 2.15, N′-(3-chloro-2,4-difluoro-phenyl)-N′-methyl-N-[3-morpholin-4-yl-5-(propan-2-yloxymethyl)phenyl] pyrimidine-2,4-diamine] the IC50 [1] was 1110 nM and the IC50 [2] was 17 nM.
Compound `CN1CCN(c2cccc(Nc3nccc(N(C)c4ccc(F)c(Cl)c4F)n3)c2)CC1` [Example 4, N′-(3-chloro-2,4-difluoro-phenyl)-N′-methyl-N-[3-(4-methylpiperazin-1-yl)phenyl]pyrimidine-2,4-diamine] has an IC50 [1] of 63.8 nM and an IC50 [2] of 1710 nM.
In the case of `CN(c1ccc(Cl)c(F)c1)c1ccnc(Nc2cc(N3CCOCC3)cc(N3CCOCC3)c2)n1` [Example 15.16, N′-(4-chloro-3-fluoro-phenyl)-N-(3,5-dimorpholin-4-ylphenyl)-N′-methyl-pyrimidine-2,4-diamine], the IC50 [1] is reported as 634 nM.
Compound `COc1cc(N(C)c2ccnc(Nc3cc(N4CCOCC4)cc(N4CCOCC4)c3)n2)ccc1C` [Example 15.10, N-(3,5-dimorpholin-4-ylphenyl)-N′-(3-methoxy-4-methyl-phenyl)-N′-methyl-pyrimidine-2,4-diamine] has an IC50 [1] of 7730 nM.
`CN1CCN(Cc2cc(Nc3nccc(N(C)c4ccc(F)c(Cl)c4F)n3)cc(N3CCOCC3)c2)CC1` [Example 2.18, N′-(3-chloro-2,4-difluoro-phenyl)-N′-methyl-N-[3-[(4-methylpiperazin-1-yl)methyl]-5-morpholin-4-yl-phenyl] pyrimidine-2,4-diamine] was tested, and the IC50 [1] was 46.1 nM.
Compound `CN(c1ccnc(Nc2cc(N3CCOCC3)cc(N3CCOCC3)c2)n1)c1cccc(Cl)c1Cl` [Example 15.21, N′-(2,3-dichlorophenyl)-N-(3,5-dimorpholin-4-ylphenyl)-N′-methyl-pyrimidine-2,4-diamine] has an IC50 [1] of 1310 nM.
`COc1ccc(N(C)c2ccnc(Nc3cc(N4CCOCC4)cc(N4CCOCC4)c3)n2)cc1OC` [Example 15.3, N′-(3,4-dimethoxyphenyl)-N-(3,5-dimorpholin-4-ylphenyl)-N′-methyl-pyrimidine-2,4-diamine] showed an IC50 [1] of 1000 nM.
Compound `CN(c1ccnc(Nc2cc(N3CCOCC3)cc(N3CCOCC3)c2)n1)c1ccc(F)c(F)c1F` [Example 15.9, N-(3,5-dimorpholin-4-ylphenyl)-N′-methyl-N′-(2,3,4-trifluorophenyl)pyrimidine-2,4-diamine] has an IC50 [1] of 602 nM.
Compound `CN1CCN(C(=O)c2cc(Nc3nccc(N(C)c4cccc(Cl)c4)n3)cc(N3CCOCC3)c2)CC1` [Example 19.11, [3-[[4-[(3-chlorophenyl)-methyl-amino]pyrimidin-2-yl]amino]-5-morpholin-4-yl-phenyl]-(4-methylpiperazin-1-yl)methanone] has an IC50 [1] of 207 nM.
`CCOCCOc1cc(Nc2nccc(N(C)c3cc(CO)ccc3C)n2)cc(N2CCOCC2)c1` [Example 17.7, [3-[[2-[[3-(2-ethoxyethoxy)-5-morpholin-4-yl-phenyl]amino]pyrimidin-4-yl]-methyl-amino]-4-methyl-phenyl]methanol] gave an IC50 [1] of 639 nM.
Work on `CC(C)NC(=O)c1cc(Nc2nccc(N(C)c3cccc(Cl)c3)n2)cc(N2CCOCC2)c1` [Example 19.14, 3-[[4-[(3-chlorophenyl)-methyl-amino]pyrimidin-2-yl]amino]-5-morpholin-4-yl-N-propan-2-yl-benzamide] yielded an IC50 [1] of 1180 nM.
For `CN(c1cccc(F)c1)c1ccnc(Nc2cc(N3CCOCC3)cc(N3CCOCC3)c2)n1` [Example 10.5, N-(3,5-dimorpholin-4-ylphenyl)-N′-(3-fluorophenyl)-N′-methyl-pyrimidine-2,4-diamine], the IC50 [1] was 340 nM.
With `COc1ccc(C)c(N(C)c2ccnc(Nc3cc(N4CCOCC4)cc(N4CCC(O)CC4)c3)n2)c1` [Example 12.5, 1-(3-(4-((5-methoxy-2-methylphenyl)(methyl)amino)pyrim-idin-2-ylamino)-5-morpholinophenyl)piperidin-4-ol] the IC50 [1] was 2.95 nM.
For `CN(c1ccc(F)c(F)c1)c1ccnc(Nc2cc(N3CCOCC3)cc(N3CCOCC3)c2)n1` [Example 15.7, N′-(3,4-difluorophenyl)-N-(3,5-dimorpholin-4-ylphenyl)-N′-methyl-pyrimidine-2,4-diamine], the IC50 [1] was 707 nM.
For `COc1cc(C)ccc1N(C)c1ccnc(Nc2cc(N3CCOCC3)cc(N3CCOCC3)c2)n1` [Example 15.12, N-(3,5-dimorpholin-4-ylphenyl)-N′-(2-methoxy-4-methyl-phenyl)-N′-methyl-pyrimidine-2,4-diamine], the IC50 [1] was 1400 nM.
With `Cc1ccc(CO)cc1N(C)c1ccnc(Nc2cc(C(=O)N3CCCC3)cc(N3CCOCC3)c2)n1` [Example 18.2] the IC50 [1] was 62.3 nM.
`COc1ccc(C)c(N(C)c2ccnc(Nc3cc(N4CCNCC4)cc(N4CCOCC4)c3)n2)c1` [Example 12.6, N4-(5-methoxy-2-methylphenyl)-N4-methyl-N2-(3-morpholino-5-(piperazin-1-yl)phenyl)pyrimidine-2,4-diamine] gave an IC50 [1] of 3.4 nM.
For `CN(c1ccnc(Nc2cc(N3CCOCC3)cc(S(C)(=O)=O)c2)n1)c1ccc(F)c(Cl)c1F` [Example 2.6, N′-(3-chloro-2,4-difluoro-phenyl)-N′-methyl-N-(3-methylsulfonyl-5-morpholin-4-yl-phenyl) pyrimidine-2,4-diamine], the IC50 [1] was 447 nM.
